# Where “and” joins values, the source holds several entries; their conditions need not be identical. Identical values can stand only once. Counter-ions that a name gives are not always drawn.
# Experiments:
# Format in all cases: cell-based
# [1] = target: ATM kinase (Homo sapiens (Human), UniProt Q13315); assay: Assay a) ATM cellular potency assay (pATM Ser1981 in X-ray irradiated HT29 cells); details: HT29 cells, pATM Ser1981 after X-ray irradiation; geometric mean where repeated; read-out: Assay a) ATM Cell IC50
# [2] = target: ATR kinase (Homo sapiens (Human), UniProt Q13535); assay: Assay b) ATR cellular potency assay (pChk1 Ser345 in HT29 cells treated with 4NQO); details: HT29 cells, pChk1 Ser345 after 4NQO; geometric mean where repeated; read-out: Assay b) ATR Cell IC50
# Chain of ATR kinase (Q13535 whole entry): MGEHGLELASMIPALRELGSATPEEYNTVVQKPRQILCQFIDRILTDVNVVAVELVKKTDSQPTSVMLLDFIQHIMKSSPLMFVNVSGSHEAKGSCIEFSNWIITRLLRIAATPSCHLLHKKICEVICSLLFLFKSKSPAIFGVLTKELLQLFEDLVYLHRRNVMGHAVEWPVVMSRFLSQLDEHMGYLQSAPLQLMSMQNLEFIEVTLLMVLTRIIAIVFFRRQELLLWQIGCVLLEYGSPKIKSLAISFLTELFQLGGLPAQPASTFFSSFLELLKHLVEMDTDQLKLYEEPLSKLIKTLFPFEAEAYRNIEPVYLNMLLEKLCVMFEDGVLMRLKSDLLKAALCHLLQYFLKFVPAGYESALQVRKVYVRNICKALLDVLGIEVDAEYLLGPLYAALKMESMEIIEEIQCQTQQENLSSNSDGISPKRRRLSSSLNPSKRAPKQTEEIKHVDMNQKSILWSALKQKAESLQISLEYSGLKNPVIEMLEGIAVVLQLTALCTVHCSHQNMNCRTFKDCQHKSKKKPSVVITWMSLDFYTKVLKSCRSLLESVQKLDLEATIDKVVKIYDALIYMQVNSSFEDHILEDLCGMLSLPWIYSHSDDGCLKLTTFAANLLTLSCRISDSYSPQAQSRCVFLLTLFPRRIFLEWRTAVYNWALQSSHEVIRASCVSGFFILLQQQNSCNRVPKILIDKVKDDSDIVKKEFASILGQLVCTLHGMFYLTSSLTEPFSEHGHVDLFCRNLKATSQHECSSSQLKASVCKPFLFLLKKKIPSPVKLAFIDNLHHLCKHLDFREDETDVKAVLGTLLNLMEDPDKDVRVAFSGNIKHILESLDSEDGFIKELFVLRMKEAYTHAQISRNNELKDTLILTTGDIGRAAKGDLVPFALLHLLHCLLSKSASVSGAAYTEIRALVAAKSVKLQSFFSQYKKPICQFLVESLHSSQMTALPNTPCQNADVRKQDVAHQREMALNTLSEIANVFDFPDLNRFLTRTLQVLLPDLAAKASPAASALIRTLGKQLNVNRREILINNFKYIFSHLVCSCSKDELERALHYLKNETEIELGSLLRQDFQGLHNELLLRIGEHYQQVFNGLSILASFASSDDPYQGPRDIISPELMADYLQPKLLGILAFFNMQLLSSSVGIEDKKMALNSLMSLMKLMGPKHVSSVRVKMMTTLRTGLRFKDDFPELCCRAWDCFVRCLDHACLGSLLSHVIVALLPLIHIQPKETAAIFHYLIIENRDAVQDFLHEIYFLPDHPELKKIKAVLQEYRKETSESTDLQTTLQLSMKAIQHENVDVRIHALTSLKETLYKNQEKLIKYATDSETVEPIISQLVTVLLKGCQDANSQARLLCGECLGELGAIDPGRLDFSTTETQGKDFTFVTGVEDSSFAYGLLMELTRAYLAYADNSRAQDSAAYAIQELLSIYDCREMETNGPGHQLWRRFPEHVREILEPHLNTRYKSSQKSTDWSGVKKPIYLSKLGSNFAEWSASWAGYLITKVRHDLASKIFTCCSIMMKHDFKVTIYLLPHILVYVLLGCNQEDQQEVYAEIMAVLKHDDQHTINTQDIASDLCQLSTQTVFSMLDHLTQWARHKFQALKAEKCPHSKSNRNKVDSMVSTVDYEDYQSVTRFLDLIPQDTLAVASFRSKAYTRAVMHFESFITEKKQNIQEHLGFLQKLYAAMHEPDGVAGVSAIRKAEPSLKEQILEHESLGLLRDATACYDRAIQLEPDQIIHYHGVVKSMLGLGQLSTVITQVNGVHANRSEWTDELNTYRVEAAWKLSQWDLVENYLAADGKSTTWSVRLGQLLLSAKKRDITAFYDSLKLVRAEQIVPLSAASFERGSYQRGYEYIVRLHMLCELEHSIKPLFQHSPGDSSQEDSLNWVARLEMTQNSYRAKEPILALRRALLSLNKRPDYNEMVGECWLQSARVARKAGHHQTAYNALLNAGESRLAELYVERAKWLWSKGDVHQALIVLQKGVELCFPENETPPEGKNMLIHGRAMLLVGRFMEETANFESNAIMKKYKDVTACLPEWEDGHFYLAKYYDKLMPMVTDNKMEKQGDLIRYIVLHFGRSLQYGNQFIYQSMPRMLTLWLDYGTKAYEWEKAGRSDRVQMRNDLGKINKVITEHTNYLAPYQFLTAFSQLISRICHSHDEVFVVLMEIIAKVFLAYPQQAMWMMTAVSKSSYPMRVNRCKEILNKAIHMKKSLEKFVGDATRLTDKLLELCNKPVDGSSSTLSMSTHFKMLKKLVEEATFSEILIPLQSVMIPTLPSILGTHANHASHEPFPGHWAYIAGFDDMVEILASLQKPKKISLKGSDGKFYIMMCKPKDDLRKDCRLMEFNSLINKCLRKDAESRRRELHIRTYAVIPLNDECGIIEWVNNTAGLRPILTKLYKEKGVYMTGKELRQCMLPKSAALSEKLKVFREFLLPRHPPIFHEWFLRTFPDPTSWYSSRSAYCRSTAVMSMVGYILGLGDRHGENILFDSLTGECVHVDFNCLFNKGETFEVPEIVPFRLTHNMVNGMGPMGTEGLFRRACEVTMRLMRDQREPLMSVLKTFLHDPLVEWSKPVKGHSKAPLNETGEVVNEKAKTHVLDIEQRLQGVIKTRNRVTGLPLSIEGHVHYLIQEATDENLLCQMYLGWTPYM
# Chain of ATR kinase (Q8WXE1 whole entry partner): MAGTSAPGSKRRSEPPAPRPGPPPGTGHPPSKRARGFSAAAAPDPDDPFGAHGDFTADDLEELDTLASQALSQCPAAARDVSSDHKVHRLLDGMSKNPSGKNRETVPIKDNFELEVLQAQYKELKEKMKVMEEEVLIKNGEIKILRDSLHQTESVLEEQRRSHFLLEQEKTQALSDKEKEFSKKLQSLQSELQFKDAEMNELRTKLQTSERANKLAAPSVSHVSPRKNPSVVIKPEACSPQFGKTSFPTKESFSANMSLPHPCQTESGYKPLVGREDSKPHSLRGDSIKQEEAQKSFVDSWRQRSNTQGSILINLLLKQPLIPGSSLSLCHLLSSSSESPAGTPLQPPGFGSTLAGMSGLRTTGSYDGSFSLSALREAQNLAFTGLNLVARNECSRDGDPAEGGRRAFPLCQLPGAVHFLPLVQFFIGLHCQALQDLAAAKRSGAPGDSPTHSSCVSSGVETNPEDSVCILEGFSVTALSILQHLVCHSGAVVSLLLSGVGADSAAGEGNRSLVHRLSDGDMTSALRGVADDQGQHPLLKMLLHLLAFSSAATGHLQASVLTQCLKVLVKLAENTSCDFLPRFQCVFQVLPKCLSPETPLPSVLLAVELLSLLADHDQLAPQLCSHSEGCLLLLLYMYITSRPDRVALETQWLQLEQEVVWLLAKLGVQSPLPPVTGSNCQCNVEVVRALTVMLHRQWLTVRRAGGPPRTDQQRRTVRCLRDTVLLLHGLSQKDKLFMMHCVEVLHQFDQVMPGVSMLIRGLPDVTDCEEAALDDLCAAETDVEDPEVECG
# [3] = target: PI3K-α (Homo sapiens, UniProt P42336); assay: Assay c) PI3K cellular potency assay (phospho-Akt T308 ELISA in BT474 cells); details: BT474 cells, phospho-Akt T308, 2 h; geometric mean where repeated; read-out: Assay c) PI3Kα Cell IC50
# Chain of PI3K-α (P42336 whole entry, looked up): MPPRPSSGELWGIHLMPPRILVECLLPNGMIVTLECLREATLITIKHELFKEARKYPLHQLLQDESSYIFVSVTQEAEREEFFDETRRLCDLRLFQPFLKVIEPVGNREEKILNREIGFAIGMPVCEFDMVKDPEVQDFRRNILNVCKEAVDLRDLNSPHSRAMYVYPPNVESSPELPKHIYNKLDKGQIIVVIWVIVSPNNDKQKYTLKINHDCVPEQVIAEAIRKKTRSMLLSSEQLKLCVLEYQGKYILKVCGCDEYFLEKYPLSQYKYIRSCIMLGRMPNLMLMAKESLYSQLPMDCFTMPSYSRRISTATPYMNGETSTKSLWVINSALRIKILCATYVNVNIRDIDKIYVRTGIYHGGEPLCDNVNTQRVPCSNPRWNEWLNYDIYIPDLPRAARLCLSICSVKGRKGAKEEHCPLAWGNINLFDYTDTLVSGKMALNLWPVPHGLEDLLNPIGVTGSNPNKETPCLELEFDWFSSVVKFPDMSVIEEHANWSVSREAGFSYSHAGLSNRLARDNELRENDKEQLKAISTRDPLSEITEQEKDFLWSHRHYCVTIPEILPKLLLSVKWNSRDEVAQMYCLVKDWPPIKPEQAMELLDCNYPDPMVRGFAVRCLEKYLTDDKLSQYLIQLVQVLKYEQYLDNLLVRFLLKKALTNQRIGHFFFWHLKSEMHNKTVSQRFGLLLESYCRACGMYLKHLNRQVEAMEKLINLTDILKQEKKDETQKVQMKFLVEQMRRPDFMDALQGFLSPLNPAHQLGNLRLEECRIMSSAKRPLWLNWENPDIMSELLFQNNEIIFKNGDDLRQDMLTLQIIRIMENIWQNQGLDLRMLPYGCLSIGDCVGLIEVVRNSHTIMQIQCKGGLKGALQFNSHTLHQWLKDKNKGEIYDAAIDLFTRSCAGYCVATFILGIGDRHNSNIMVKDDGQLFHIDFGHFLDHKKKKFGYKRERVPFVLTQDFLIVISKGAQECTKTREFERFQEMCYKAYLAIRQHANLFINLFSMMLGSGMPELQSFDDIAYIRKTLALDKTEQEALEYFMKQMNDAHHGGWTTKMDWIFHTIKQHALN
# [4] = target: mTOR (Homo sapiens (Human), UniProt P42345); assay: Assay d) mTOR cellular potency assay (phospho-AKT Ser473 in MDA-MB-468 cells); details: MDA-MB-468 cells, phospho-AKT Ser473, 2 h; geometric mean where repeated; read-out: Assay d) mTOR Cell IC50
Structure (SMILES),IC50 [1],IC50 [2] [nM],IC50 [3] [nM],IC50 [4] [nM]
"CO[C@H]1C[C@@H](n2c(=O)n(C)c3cnc4cc(F)c(-c5ccc(OCCCN(C)C)nc5)cc4c32)C1 [Example 6, 8-[6-(3-dimethylaminopropoxy)pyridin-3-yl]-7-fluoro-1-(cis-3-methoxycyclobutyl)-3-methylimidazo[4,5-c]quinolin-2-one]",1.05 nM,> 30000,> 30000,> 16900
"CN(C)CCCOc1ccc(-c2ccc3ncc4c(c3c2)n(C2(C)CCOCC2)c(=O)n4C)cn1 [Example 7, 8-[6-(3-dimethylaminopropoxy)pyridin-3-yl]-3-methyl-1-(4-methyloxan-4-yl)imidazo[5,4-c]quinolin-2-one]",0.96 nM,10800,541,266
"CN(C)CCCOc1ccc(-c2cc3c(cc2F)ncc2c3n(C3CCOCC3)c(=O)n2C)cn1 [Example 8, 8-[6-(3-dimethylaminopropoxy)pyridin-3-yl]-7-fluoro-3-methyl-1-(oxan-4-yl)imidazo[5,4-c]quinolin-2-one]",0.782 nM,> 30000,18100,14000
"CN(C)CCCOc1ccc(-c2ccc3ncc4c(c3c2)n([C@@H]2CCCOC2)c(=O)n4C)cn1 [Example 16, 8-[6-(3-dimethylaminopropoxy)pyridin-3-yl]-3-methyl-1-[(3R)-oxan-3-yl]imidazo[5,4-c]quinolin-2-one]",–,> 22800,311,714
"CO[C@H]1C[C@@H](n2c(=O)n(C)c3cnc4ccc(-c5ccc(OCCCN(C)C)nc5F)cc4c32)C1 [Example 18, 8-[6-(3-dimethylaminopropoxy)-2-fluoropyridin-3-yl]-1-(cis-3-methoxycyclobutyl)-3-methylimidazo[4,5-c]quinolin-2-one]",–,> 30000,2730,3780
"CO[C@H]1C[C@@H](n2c(=O)n(C)c3cnc4ccc(-c5ccc(OCCCN6CCCCC6)nc5)cc4c32)C1 [Example 33, 1-(cis-3-methoxycyclobutyl)-3-methyl-8-[6-(3-piperidin-1-ylpropoxy)pyridin-3-yl]imidazo[4,5-c]quinolin-2-one]",–,–,12400,2870
"CN(C)CCCOc1ccc(-c2ccc3ncc4c(c3c2)n(C2CCC2)c(=O)n4C)cn1 [Example 46, 1-cyclobutyl-8-[6-[3-(dimethylamino)propoxy]-3-pyridyl]-3-methyl-imidazo[4,5-c]quinolin-2-one methanesulfonic acid salt]",3.15 nM,> 26000,794,–
"CN(C)CCCOc1ccc(-c2ccc3ncc4c(c3c2)n([C@H]2CCOC2)c(=O)n4C)c(F)n1 [Example 49, 8-[6-[3-(dimethylamino)propoxy]-2-fluoro-3-pyridyl]-3-methyl-1-[(3S)-tetrahydrofuran-3-yl]imidazo[4,5-c]quinolin-2-one methanesulfonic acid salt]",1.34 nM,> 30000,–,3760
CN(C)CCCOc1ccc(-c2ccc3ncc4c(c3c2)n([C@@H]2CCOC2)c(=O)n4C)c(F)n1 [Example 50],1.44 nM,> 30000,–,4480
"CN(C)CCCOc1ccc(-c2ccc3ncc4c(c3c2)n(C2COC2)c(=O)n4C)c(F)n1 [Example 52, 8-[6-[3-(dimethylamino)propoxy]-2-fluoro-3-pyridyl]-3-methyl-1-(oxetan-3-yl)imidazo[4,5-c]quinolin-2-one methanesulfonic acid salt]",–,> 30000,7200,12100
"Cn1c(=O)n([C@H]2CCOC2)c2c3cc(-c4ccc(OCCCN5CCCCC5)nc4)ccc3ncc21 [Example 55, 3-methyl-8-[6-[3-(1-piperidyl)propoxy]-3-pyridyl]-1-[(3S)-tetrahydrofuran-3-yl]imidazo[4,5-c]quinolin-2-one]",0.493 nM,> 16100,–,–
"Cn1c(=O)n([C@@H]2CCCOC2)c2c3cc(-c4ccc(OCCCN5CCCC5)nc4)ccc3ncc21 [Example 59, 3-methyl-8-[6-(3-pyrrolidin-1-ylpropoxy)-3-pyridyl]-1-[(3R)-tetrahydropyran-3-yl]imidazo[4,5-c]quinolin-2-one]",–,> 19100,264,610
"Cn1c(=O)n([C@H]2CCCOC2)c2c3cc(-c4ccc(OCCCN5CCCC5)nc4F)ccc3ncc21 [Example 61, 8-[2-Fluoro-6-(3-pyrrolidin-1-ylpropoxy)-3-pyridyl]-3-methyl-1-[(3S)-tetrahydropyran-3-yl]imidazo[4,5-c]quinolin-2-one]",0.554 nM,> 30000,> 16200,–
"CO[C@@H]1CC[C@@H](n2c(=O)n(C)c3cnc4cc(F)c(-c5ccc(OCCCN(C)C)nc5)cc4c32)C1 [Example 62, 8-[6-[3-(Dimethylamino)propoxy]-3-pyridyl]-7-fluoro-1-[(1R,3R)-3-methoxycyclopentyl]-3-methyl-imidazo[4,5-c]quinolin-2-one]",0.507 nM,–,–,> 30000
"CO[C@H]1CC[C@H](n2c(=O)n(C)c3cnc4ccc(-c5ccc(OCCCN6CCCC6)nc5)cc4c32)C1 [Example 66, 1-[(1S,3S)-3-methoxycyclopentyl]-3-methyl-8-[6-(3-pyrrolidin-1-ylpropoxy)-3-pyridyl]imidazo[4,5-c]quinolin-2-one]",–,7850,1490,3320
"CO[C@H]1CC[C@H](n2c(=O)n(C)c3cnc4ccc(-c5ccc(OCCCN(C)C)nc5F)cc4c32)C1 [Example 69, 8-[6-[3-(dimethylamino)propoxy]-2-fluoro-3-pyridyl]-1-[(1S,3S)-3-methoxycyclopentyl]-3-methyl-imidazo[4,5-c]quinolin-2-one]",0.324 nM,> 30000,> 2770,–

# Next, values leading:
IC50 [1],IC50 [2] [nM],IC50 [3] [nM],IC50 [4] [nM],Structure (SMILES)
0.765 nM,> 24000,499,1360,"Cn1c(=O)n(C2CCCOC2)c2c3cc(-c4ccc(OCCCN5CCC5)nc4)ccc3ncc21 (stereo in doubt) [Example 60, 8-[6-[3-(azetidin-1-yl)propoxy]-3-pyridyl]-3-methyl-1-[(3S)-tetrahydropyran-3-yl]imidazo[4,5-c]quinolin-2-one]"
0.249 nM,> 29000,1770,1170,"CO[C@H]1C[C@@H](n2c(=O)n(C)c3cnc4ccc(-c5ccc(OCCCN(C)C)nc5)cc4c32)C1 [Example 2, 8-[6-(3-Dimethylaminopropoxy)pyridin-3-yl]-1-(cis-3-methoxycyclobutyl)-3-methylimidazo[4,5-c]quinolin-2-one]"
2.03 nM,> 30000,22400,4930,"CN(C)CCCOc1ccc(-c2cc3c(cc2F)ncc2c3n(C3(C)CCOCC3)c(=O)n2C)cn1 [Example 3, 8-[6-(3-Dimethylaminopropoxy)pyridin-3-yl]-7-fluoro-3-methyl-1-(4-methyloxan-4-yl)imidazo[5,4-c]quinolin-2-one]"
–,> 30000,968,1470,"CN(C)CCCOc1ccc(-c2ccc3ncc4c(c3c2)n([C@H]2CCCOC2)c(=O)n4C)cn1 [Example 17, 8-[6-(3-dimethylaminopropoxy)pyridin-3-yl]-3-methyl-1-[(3S)-oxan-3-yl]imidazo[5,4-c]quinolin-2-one]"
–,> 23300,> 29800,> 17500,"CO[C@H]1C[C@@H](n2c(=O)n(C)c3cnc4cc(F)c(-c5ccc(OCCCN6CCCC6)nc5)cc4c32)C1 [Example 27, 7-Fluoro-1-(cis-3-methoxycyclobutyl)-3-methyl-8-[6-(3-pyrrolidin-1-ylpropoxy)pyridin-3-yl]imidazo[4,5-c]quinolin-2-one]"
0.176 nM,> 22800,–,2770,"CO[C@H]1C[C@@H](n2c(=O)n(C)c3cnc4ccc(-c5ccc(OCCCN6CCCC6)nc5)cc4c32)C1 [Example 28, 1-(cis-3-methoxycyclobutyl)-3-methyl-8-[6-(3-pyrroldin-1-ylpropoxy)pyridin-3-yl]imidazo[4,5-c]quinolin-2-one]"
–,19000,1650,605,"Cn1c(=O)n([C@H]2CCCOC2)c2c3cc(-c4ccc(OCCCN5CCCC5)nc4)ccc3ncc21 [Example 29, 3-methyl-1-[(3S)-oxan-3-yl]-8-[6-(3-pyrrolidin-1-ylpropoxy)pyridin-3-yl]imidazo[5,4-c]quinolin-2-one]"
–,19000,2330,1570,"Cn1c(=O)n(C2CCOCC2)c2c3cc(-c4ccc(OCCCN5CCCC5)nc4)ccc3ncc21 [Example 30, 3-methyl-1-(oxan-4-yl)-8-[6-(3-pyrrolidin-1-ylpropoxy)pyridin-3-yl]imidazo[5,4-c]quinolin-2-one]"
1.1 nM and 0.715 nM,> 27100,–,–,"Cn1c(=O)n([C@@H]2CCOC2)c2c3cc(-c4ccc(OCCCN5CCCCC5)nc4)ccc3ncc21 [Example 54, 3-methyl-8-[6-[3-(1-piperidyl)propoxy]-3-pyridyl]-1-[(3R)-tetrahydrofuran-3-yl]imidazo[4,5-c]quinolin-2-one methane sulfonic acid salt]"
–,15200,> 2850,996,"CO[C@@H]1CC[C@@H](n2c(=O)n(C)c3cnc4ccc(-c5ccc(OCCCN6CCCC6)nc5)cc4c32)C1 [Example 67, 1-[(1R,3R)-3-methoxycyclopentyl]-3-methyl-8-[6-(3-pyrrolidin-1-ylpropoxy)-3-pyridyl]imidazo[4,5-c]quinolin-2-one]"

# From US9428503B2, “Imidazo[4,5-c]quinolin-2-one compounds and their use in treating Cancer” (AstraZeneca AB, priority 2014, dated 2016)
